Entries after “also recorded” stand apart in the source; their conditions may differ.
Tests used:
[1] = molecular target: T1, A/M2-V27A (Influenza A virus, UniProt P0DOF5, V27A); format: cell-based, Influenza A virus (Udorn strain)
[2] = tested on: influenza A virus (A/Udorn/72) V27A mutant; format: cell-based
[3] = molecular target: T1, A/M2-V27A; details: cited from earlier work

Compound	inhibition against V27A mutant (in words) [1]	inhibition of A/M2-V27A virus replication [2]	effect of V27A mutation on channel sensitivity to drug [3]
NC12CC3CC(CC(C3)C1)C2 [Amantadine]	completely unable to inhibit	no inhibition; also recorded: no effect	entirely resistant
CC(N)C12CC3CC(CC(C3)C1)C2 (stereo not shown) [rimantadine]	–	–	entirely resistant

— publication PMC3354620 (Journal of the American Chemical Society, 2011)
